# Test results from PMC5218480 (PLoS ONE, 2017).
# Tested on: MV-4-11 cells
# Experiment: Gene expression microarray analysis (Affymetrix PrimeView) and GSEA
# Assay type: cell-based, human
# Parameters: RFU PODN (11730768_x_at) / Fold change /veh PODN (11730768_x_at) / RFU LINC00158 (11744669_a_at) / Fold change /veh LINC00158 (11744669_a_at) / RFU DUSP10 (11751237_a_at) / Fold change /veh DUSP10 (11751237_a_at) / RFU ID3 (11757404_x_at) / Fold change /veh ID3 (11757404_x_at) / RFU PLEKHG5 (11737974_s_at) / Fold change /veh PLEKHG5 (11737974_s_at) / RFU LRRC4B (11730491_at) / Fold change /veh LRRC4B (11730491_at) / RFU GIMAP4 (11747438_a_at) / Fold change /veh GIMAP4 (11747438_a_at) / RFU KRT8 (11758183_x_at) / Fold change /veh KRT8 (11758183_x_at) / RFU CNN1 (11734310_a_at) / Fold change /veh CNN1 (11734310_a_at) / RFU VPS37D (11726825_at) / Fold change /veh VPS37D (11726825_at) / RFU C10orf10 (11716522_x_at) / Fold change /veh C10orf10 (11716522_x_at) / RFU KIR2DL2 /// KIR2DL4 /// KIR2DL5A /// KIR2DL5B /// KIR2DS1 /// KIR2DS2 /// KIR2DS3 /// KIR2DS4 /// KIR3DL3 /// KIR3DL3 /// KIR3DS1 (11738374_at) / Fold change /veh KIR2DL2 /// KIR2DL4 /// KIR2DL5A /// KIR2DL5B /// KIR2DS1 /// KIR2DS2 /// KIR2DS3 /// KIR2DS4 /// KIR3DL3 /// KIR3DL3 /// KIR3DS1 (11738374_at) / RFU C1QL1 (11718748_at) / Fold change /veh C1QL1 (11718748_at) / RFU TMPRSS4 (11747572_a_at) / Fold change /veh TMPRSS4 (11747572_a_at) / RFU HAMP (11756126_x_at) / Fold change /veh HAMP (11756126_x_at) / RFU RNFT2 (11725882_a_at) / Fold change /veh RNFT2 (11725882_a_at) / RFU NR4A2 (11747474_a_at) / Fold change /veh NR4A2 (11747474_a_at) / RFU ABCC12 (11746883_a_at) / Fold change /veh ABCC12 (11746883_a_at) / RFU TMEM136 (11760407_x_at) / Fold change /veh TMEM136 (11760407_x_at) / RFU CLDN22 /// WWC2 (11732394_at) / Fold change /veh CLDN22 /// WWC2 (11732394_at) / RFU HLA-DPB1 (11760878_x_at) / Fold change /veh HLA-DPB1 (11760878_x_at) / RFU SPINT1 (11716480_a_at) / Fold change /veh SPINT1 (11716480_a_at) / RFU GAP43 (11754022_s_at) / Fold change /veh GAP43 (11754022_s_at) / RFU A4GNT (11735810_at) / Fold change /veh A4GNT (11735810_at) / RFU PRB3 (11715151_x_at) / Fold change /veh PRB3 (11715151_x_at) / RFU TUBB4B (11761932_at) / Fold change /veh TUBB4B (11761932_at) / RFU CAPN14 (11732068_a_at) / Fold change /veh CAPN14 (11732068_a_at) / RFU TMCC2 (11721928_a_at) / Fold change /veh TMCC2 (11721928_a_at) / RFU IRGQ (11745062_a_at) / Fold change /veh IRGQ (11745062_a_at) / RFU FAM174B (11720279_a_at) / Fold change /veh FAM174B (11720279_a_at) / RFU TMPRSS4 (11748680_a_at) / Fold change /veh TMPRSS4 (11748680_a_at) / RFU FAM212B (11763350_a_at) / Fold change /veh FAM212B (11763350_a_at) / RFU PLEKHG5 (11743358_a_at) / Fold change /veh PLEKHG5 (11743358_a_at) / RFU ZSCAN30 (11745921_a_at) / Fold change /veh ZSCAN30 (11745921_a_at) / RFU CMKLR1 (11741424_a_at) / Fold change /veh CMKLR1 (11741424_a_at) / RFU LOC101060620 /// MAPK8IP1 (11723275_at) / Fold change /veh LOC101060620 /// MAPK8IP1 (11723275_at) / RFU SPTSSB (11747773_x_at) / Fold change /veh SPTSSB (11747773_x_at) / RFU PRSS12 (11739890_at) / Fold change /veh PRSS12 (11739890_at) / RFU BIN1 (11741810_x_at) / Fold change /veh BIN1 (11741810_x_at) / RFU WNT11 (11732464_a_at) / Fold change /veh WNT11 (11732464_a_at) / RFU C10orf10 (11716521_a_at) / Fold change /veh C10orf10 (11716521_a_at) / RFU C5orf56 (11738089_at) / Fold change /veh C5orf56 (11738089_at) / RFU CYB561 (11721691_x_at) / Fold change /veh CYB561 (11721691_x_at) / RFU ANKRD19P (11752326_a_at) / Fold change /veh ANKRD19P (11752326_a_at) / RFU OR2T12 /// OR2T33 /// OR2T8 (11738714_s_at) / Fold change /veh OR2T12 /// OR2T33 /// OR2T8 (11738714_s_at) / RFU VCAN (11748164_a_at) / Fold change /veh VCAN (11748164_a_at) / RFU JSRP1 (11732532_at) / Fold change /veh JSRP1 (11732532_at) / RFU KRTAP10-11 (11738290_x_at) / Fold change /veh KRTAP10-11 (11738290_x_at) / RFU MYO3A (11730013_a_at) / Fold change /veh MYO3A (11730013_a_at) / RFU EBF3 (11725865_a_at) / Fold change /veh EBF3 (11725865_a_at) / RFU CAMK2N1 (11719241_x_at) / Fold change /veh CAMK2N1 (11719241_x_at) / RFU C5orf56 (11738088_a_at) / Fold change /veh C5orf56 (11738088_a_at) / RFU OLFML3 (11715873_a_at) / Fold change /veh OLFML3 (11715873_a_at) / RFU LOC100653217 /// NTM (11731650_a_at) / Fold change /veh LOC100653217 /// NTM (11731650_a_at) / RFU MAPK11 (11762145_a_at) / Fold change /veh MAPK11 (11762145_a_at) / RFU FIZ1 (11724087_x_at) / Fold change /veh FIZ1 (11724087_x_at) / RFU OASL (11726364_x_at) / Fold change /veh OASL (11726364_x_at) / RFU SOX15 (11748057_x_at) / Fold change /veh SOX15 (11748057_x_at) / RFU CD79A (11719716_a_at) / Fold change /veh CD79A (11719716_a_at) / RFU HIST1H1D (11736915_at) / Fold change /veh HIST1H1D (11736915_at) / RFU CASKIN2 (11723855_a_at) / Fold change /veh CASKIN2 (11723855_a_at) / RFU LOC730098 (11760151_x_at) / Fold change /veh LOC730098 (11760151_x_at) / RFU OR4N2 (11742367_at) / Fold change /veh OR4N2 (11742367_at) / RFU PRRT2 (11749266_a_at) / Fold change /veh PRRT2 (11749266_a_at) / RFU SNX32 (11753110_a_at) / Fold change /veh SNX32 (11753110_a_at) / RFU CDHR5 (11726645_a_at) / Fold change /veh CDHR5 (11726645_a_at) / RFU RCAN1 (11760418_a_at) / Fold change /veh RCAN1 (11760418_a_at) / RFU FAM167A (11723789_a_at) / Fold change /veh FAM167A (11723789_a_at) / RFU FAM26E (11764081_at) / Fold change /veh FAM26E (11764081_at) / RFU ISYNA1 (11749810_s_at) / Fold change /veh ISYNA1 (11749810_s_at) / RFU ACY1 (11761880_at) / Fold change /veh ACY1 (11761880_at) / RFU 11764098_at / Fold change /veh 11764098_at / RFU SAMD14 (11745864_x_at) / Fold change /veh SAMD14 (11745864_x_at) / RFU NPB (11741838_a_at) / Fold change /veh NPB (11741838_a_at) / RFU TMPRSS6 (11731388_a_at) / Fold change /veh TMPRSS6 (11731388_a_at) / RFU KRTAP10-2 (11738614_at) / Fold change /veh KRTAP10-2 (11738614_at) / RFU ARHGAP8 /// PRR5-ARHGAP8 (11727945_x_at) / Fold change /veh ARHGAP8 /// PRR5-ARHGAP8 (11727945_x_at) / RFU KRTAP5-7 /// NADSYN1 (11734609_at) / Fold change /veh KRTAP5-7 /// NADSYN1 (11734609_at) / RFU RASL12 (11751679_a_at) / Fold change /veh RASL12 (11751679_a_at) / RFU CDKN2B (11736163_a_at) / Fold change /veh CDKN2B (11736163_a_at) / RFU PRF1 (11729649_at) / Fold change /veh PRF1 (11729649_at) / RFU, ZNF638 /// ZNF638-IT1 / Fold change vs veh, ZNF638 /// ZNF638-IT1 / RFU, PANK3 / Fold change vs veh, PANK3 / RFU, SH3YL1 / Fold change vs veh, SH3YL1 / RFU, ZEB2 / Fold change vs veh, ZEB2 / RFU, NRIP1 / Fold change vs veh, NRIP1 / RFU, PTTG1IP / Fold change vs veh, PTTG1IP / RFU, CAPN2 / Fold change vs veh, CAPN2 / RFU, MED14 / Fold change vs veh, MED14 / RFU, SNORA58 / Fold change vs veh, SNORA58 / RFU, C1orf63 / Fold change vs veh, C1orf63 / RFU, LRRFIP1 / Fold change vs veh, LRRFIP1 / RFU, NDUFAF7 / Fold change vs veh, NDUFAF7 / RFU, SLC12A2 / Fold change vs veh, SLC12A2 / RFU, IBTK / Fold change vs veh, IBTK / RFU, ESF1 / Fold change vs veh, ESF1 / Fold change vs veh, TMEM50B / RFU, TAOK1 / Fold change vs veh, TAOK1 / RFU, ACBD3 / Fold change vs veh, ACBD3 / RFU, TMA16 / Fold change vs veh, TMA16 / RFU, RWDD3 / Fold change vs veh, RWDD3 / RFU, BCAT1 / Fold change vs veh, BCAT1 / RFU, EDEM3 / Fold change vs veh, EDEM3 / RFU, TMEM33 / Fold change vs veh, TMEM33 / RFU, WDR75 / Fold change vs veh, WDR75 / RFU, AHCTF1 / Fold change vs veh, AHCTF1 / RFU, TFRC / Fold change vs veh, TFRC / RFU, ZDHHC17 / Fold change vs veh, ZDHHC17 / RFU, NOM1 / Fold change vs veh, NOM1 / RFU, ARL8B / Fold change vs veh, ARL8B / RFU, ZBTB11 / Fold change vs veh, ZBTB11 / RFU, TAMM41 / Fold change vs veh, TAMM41 / RFU, KIAA1704 /// LOC100996395 / Fold change vs veh, KIAA1704 /// LOC100996395 / RFU, ING1 / Fold change vs veh, ING1 / RFU, TRMT61B / Fold change vs veh, TRMT61B / RFU, FUBP3 / Fold change vs veh, FUBP3 / RFU, TP53 / Fold change vs veh, TP53 / RFU, TNKS2 / Fold change vs veh, TNKS2 / RFU, ZFP14 / Fold change vs veh, ZFP14 / RFU, ACTR2 / Fold change vs veh, ACTR2 / RFU, PPP3R1 / Fold change vs veh, PPP3R1 / RFU, PIK3R1 / Fold change vs veh, PIK3R1 / RFU, HNRNPA1 / Fold change vs veh, HNRNPA1 / RFU, RNF170 / Fold change vs veh, RNF170 / RFU, ZNF28 / Fold change vs veh, ZNF28 / RFU, RNGTT / Fold change vs veh, RNGTT / RFU, OGT / Fold change vs veh, OGT / RFU, BRD1 / Fold change vs veh, BRD1 / RFU, MARS / Fold change vs veh, MARS / RFU, ZNF655 / Fold change vs veh, ZNF655 / RFU, FAHD1 / Fold change vs veh, FAHD1 / RFU, BDP1 / Fold change vs veh, BDP1 / RFU, LRRCC1 / Fold change vs veh, LRRCC1 / RFU, ARID1A / Fold change vs veh, ARID1A / RFU, ZNF146 / Fold change vs veh, ZNF146 / RFU, ZNF330 / Fold change vs veh, ZNF330 / RFU, GPN3 / Fold change vs veh, GPN3 / RFU, C9orf123 / Fold change vs veh, C9orf123 / RFU, N4BP2L2 / Fold change vs veh, N4BP2L2 / RFU, ARFIP1 / Fold change vs veh, ARFIP1 / RFU, FAM179B / Fold change vs veh, FAM179B / RFU, BCL10 / Fold change vs veh, BCL10 / RFU, UHRF1BP1L / Fold change vs veh, UHRF1BP1L / RFU, BET1 / Fold change vs veh, BET1 / RFU, CNOT2 / Fold change vs veh, CNOT2 / RFU, ZNF268 / Fold change vs veh, ZNF268 / Fold change vs veh, ZNF507 / RFU, DGCR2 / Fold change vs veh, DGCR2 / RFU, WDSUB1 / Fold change vs veh, WDSUB1 / Fold change vs veh, HSP90B1 /// MIR3652 / RFU, ADSS / Fold change vs veh, ADSS / RFU, GK / Fold change vs veh, GK / RFU, ZNF148 / Fold change vs veh, ZNF148 / RFU, TAF9 / Fold change vs veh, TAF9 / RFU, SLC1A5 / Fold change vs veh, SLC1A5 / RFU, SLMO2 / Fold change vs veh, SLMO2 / RFU, ABCC4 / Fold change vs veh, ABCC4 / RFU, LOC101060439 /// RAP1B / Fold change vs veh, LOC101060439 /// RAP1B / RFU, RFX7 / Fold change vs veh, RFX7 / RFU, GTPBP10 / Fold change vs veh, GTPBP10 / RFU, CNEP1R1 / Fold change vs veh, CNEP1R1 / RFU, BIVM-ERCC5 /// ERCC5 / Fold change vs veh, BIVM-ERCC5 /// ERCC5 / RFU, ILF3 / Fold change vs veh, ILF3 / RFU 11762660_at / Fold change /veh 11762660_at / RFU VCAN (11757783_s_at) / Fold change /veh VCAN (11757783_s_at) / RFU DDX43 (11728927_at) / Fold change /veh DDX43 (11728927_at) / RFU KRT8 (11758188_x_at) / Fold change /veh KRT8 (11758188_x_at) / RFU NKD1 (11759106_at) / Fold change /veh NKD1 (11759106_at) / RFU SRD5A1 (11742802_a_at) / Fold change /veh SRD5A1 (11742802_a_at) / RFU TPSAB1 /// TPSB2 (11721975_s_at) / Fold change /veh TPSAB1 /// TPSB2 (11721975_s_at) / RFU GSTM3 (11746129_a_at) / Fold change /veh GSTM3 (11746129_a_at) / RFU IL23R (11737362_x_at) / Fold change /veh IL23R (11737362_x_at) / RFU TMEM51 (11727254_a_at) / Fold change /veh TMEM51 (11727254_a_at) / RFU PIWIL2 (11732686_x_at) / Fold change /veh PIWIL2 (11732686_x_at) / RFU ORM1 (11744905_x_at) / Fold change /veh ORM1 (11744905_x_at) / RFU CCDC152 (11743942_at) / Fold change /veh CCDC152 (11743942_at) / RFU ECM1 (11717891_a_at) / Fold change /veh ECM1 (11717891_a_at) / RFU IL23R (11748794_a_at) / Fold change /veh IL23R (11748794_a_at) / RFU TNFAIP8L3 (11732012_x_at) / Fold change /veh TNFAIP8L3 (11732012_x_at) / RFU MBOAT4 (11741988_at) / Fold change /veh MBOAT4 (11741988_at) / RFU 11764193_at / Fold change /veh 11764193_at / RFU TMEM53 (11763286_at) / Fold change /veh TMEM53 (11763286_at) / RFU MAGEB2 (11727129_at) / Fold change /veh MAGEB2 (11727129_at) / RFU TMEM200A (11744735_a_at) / Fold change /veh TMEM200A (11744735_a_at) / RFU CCDC152 (11751479_a_at) / Fold change /veh CCDC152 (11751479_a_at) / RFU FAM211A (11726209_a_at) / Fold change /veh FAM211A (11726209_a_at) / RFU RGS16 (11746705_a_at) / Fold change /veh RGS16 (11746705_a_at) / RFU VCAN (11755009_s_at) / Fold change /veh VCAN (11755009_s_at) / RFU RHOB (11743442_s_at) / Fold change /veh RHOB (11743442_s_at) / RFU RGS16 (11720943_a_at) / Fold change /veh RGS16 (11720943_a_at) / RFU RGS16 (11720944_at) / Fold change /veh RGS16 (11720944_at) / RFU, VPS4B / Fold change vs veh, VPS4B / RFU, CREB1 / Fold change vs veh, CREB1 / RFU, DNAJC13 / Fold change vs veh, DNAJC13 / RFU, GNAQ / Fold change vs veh, GNAQ / RFU, CDK5R1 / Fold change vs veh, CDK5R1 / RFU, ZRANB3 / Fold change vs veh, ZRANB3 / RFU, CUL4A / Fold change vs veh, CUL4A / RFU, CCNY / Fold change vs veh, CCNY / RFU, UFL1 / Fold change vs veh, UFL1 / RFU, COG3 / Fold change vs veh, COG3 / RFU, DIAPH2 / Fold change vs veh, DIAPH2 / RFU, SKA2 / Fold change vs veh, SKA2 / RFU, AFF3 / Fold change vs veh, AFF3 / RFU, LMF1 / Fold change vs veh, LMF1 / RFU, IPO11 / Fold change vs veh, IPO11 / RFU, DFFB / Fold change vs veh, DFFB / RFU, FOXP1 / Fold change vs veh, FOXP1 / RFU, CARD8 / Fold change vs veh, CARD8 / RFU, STRN3 / Fold change vs veh, STRN3 / RFU, ADK / Fold change vs veh, ADK / RFU, RASSF2 / Fold change vs veh, RASSF2 / RFU, WIPF1 / Fold change vs veh, WIPF1 / RFU, LARP1B / Fold change vs veh, LARP1B / RFU, RASA1 / Fold change vs veh, RASA1 / RFU, RB1 / Fold change vs veh, RB1 / RFU, PPFIA1 / Fold change vs veh, PPFIA1 / RFU, MAT2A / Fold change vs veh, MAT2A / RFU, CCT5 / Fold change vs veh, CCT5 / RFU, WDR92 / Fold change vs veh, WDR92 / RFU, CUX1 / Fold change vs veh, CUX1 / RFU, TTC7A / Fold change vs veh, TTC7A / RFU, TMEM135 / Fold change vs veh, TMEM135 / RFU, DEPTOR / Fold change vs veh, DEPTOR / RFU, CPM / Fold change vs veh, CPM / RFU, DNAJB6 / Fold change vs veh, DNAJB6 / RFU, CACNA2D3 / Fold change vs veh, CACNA2D3 / RFU, DTX4 / Fold change vs veh, DTX4 / RFU, TFCP2 / Fold change vs veh, TFCP2 / RFU, GMCL1 /// GMCL1P1 / Fold change vs veh, GMCL1 /// GMCL1P1 / RFU, AEBP2 / Fold change vs veh, AEBP2 / RFU, SNHG1 /// SNORD22 /// SNORD25 /// SNORD26 /// SNORD27 /// SNORD28 /// SNORD29 /// SNORD31 / Fold change vs veh, SNHG1 /// SNORD22 /// SNORD25 /// SNORD26 /// SNORD27 /// SNORD28 /// SNORD29 /// SNORD31 / Fold change (Aza/veh), C12orf56 (ProbeSet 11735607_a_at) / Fold change (ACY-1035/veh), C12orf56 (ProbeSet 11735607_a_at) / Fold change (Aza/veh), FGFR1OP (ProbeSet 11751329_s_at) / Fold change (ACY-1035/veh), FGFR1OP (ProbeSet 11751329_s_at) / Fold change (Aza/veh), VPS36 (ProbeSet 11739960_a_at) / Fold change (ACY-1035/veh), VPS36 (ProbeSet 11739960_a_at) / RFU SYPL1 (11715823_x_at) / Fold change /veh SYPL1 (11715823_x_at) / RFU IGFBP7 (11715501_s_at) / Fold change /veh IGFBP7 (11715501_s_at) / RFU REEP3 (11722064_at) / Fold change /veh REEP3 (11722064_at) / RFU IGLL1 (11728026_x_at) / Fold change /veh IGLL1 (11728026_x_at): dose or concentration left out as unconfirmed
# Conditions: ProbeSet 11747888_a_at; LIST D
smiles,measurement,value
Nc1ccc(-c2cccs2)cc1NC(=O)c1ccc2c(c1)cc(C1CC1)n2CCN1CCOCC1 [ACY-1035],"Fold change vs veh, SH3YL1",0.93
